Test results published in US10322131B2, “Hydroxyacid derivatives, a process for their preparation and pharmaceutical compositions containing them” (LES LABORATOIRES SERVIER, priority 2015, dated 2019).

Key:
[1] = test system: H929 cells; assay: In vitro cytotoxicity (MTT) on H929 multiple myeloma tumour line; type: cell-based; conditions: Microculture Tetrazolium Assay
Procedure: The cytotoxicity studies were carried out on the H929 multiple myeloma tumour line.
The cells are distributed onto microplates and exposed to the test compounds for 48 hours.
The cell viability is then quantified by a colorimetric assay, the Microculture Tetrazolium Assay (Cancer Res., 1987, 47, 939-942).

[2] = molecular target: Mcl-1 protein (Homo sapiens, UniProt Q07820); assay: Inhibition of Mcl-1 by the fluorescence polarisation technique; type: binding; conditions: fluorescence polarisation test; Fluorescein labelled ligand 1 nM, Mcl-1 protein 5 nM, ~2 hours at r.t.; read-out: IC50 (M) Mcl-1 FP
Procedure: The relative binding potency of each compound was determined via Fluorescence Polarisation (FP). The method utilised a Fluorescein labelled ligand (Fluorescein-βAla-Ahx-A-REIGAQLRRMADDLNAQY-OH; mw 2,765) which binds to the Mcl-1 protein (such that Mcl-1 corresponds to the UniProtKB® primary accession number: Q07820) leading to an increased anisotropy measured in milli-polarisation (mP) units using a reader. The addition of a compound which binds competitively to the same site as the ligand will result in a greater proportion of unbound ligand in the system indicated by a decrease in mP units.
An 11 point serial dilution of each compound was prepared in DMSO and 2 μl transferred into flat bottomed, low binding, 384-well plate (final DMSO concentration 5%). 38 μl of buffer (10 mM 4-(2-hydroxyethyl)-1-piperazineethanesulfonic acid [HEPES], 150 mM NaCl, 0.05% Tween 20, pH 7.4), containing the Fluorescein labelled ligand (final concentration 1 nM) and Mcl-1 protein (final concentration 5 nM) was then added.
Assay plates were incubated ˜2 hours at r.t. before FP was measured on a Biomek Synergy2 reader (Ex. 528 nm, Em. 640 nm, Cut off 510 nm) and mP units calculated. The binding of increasing doses of test compound was expressed as a percentage reduction in mP compared to a window established between ‘5% DMSO only’ and ‘100% inhibition’ controls. 11-point dose response curves were plotted with XL-Fit software using a 4-Parameter Logistic Model (Sigmoidal Dose-Response Model) and the inhibitory concentrations that gave a 50% reduction in mP (IC50) were determined.

[3] = Homo sapiens, NCI-H929, exposed 48 hours

Mcl-1 protein, sequence (Q07820 whole entry): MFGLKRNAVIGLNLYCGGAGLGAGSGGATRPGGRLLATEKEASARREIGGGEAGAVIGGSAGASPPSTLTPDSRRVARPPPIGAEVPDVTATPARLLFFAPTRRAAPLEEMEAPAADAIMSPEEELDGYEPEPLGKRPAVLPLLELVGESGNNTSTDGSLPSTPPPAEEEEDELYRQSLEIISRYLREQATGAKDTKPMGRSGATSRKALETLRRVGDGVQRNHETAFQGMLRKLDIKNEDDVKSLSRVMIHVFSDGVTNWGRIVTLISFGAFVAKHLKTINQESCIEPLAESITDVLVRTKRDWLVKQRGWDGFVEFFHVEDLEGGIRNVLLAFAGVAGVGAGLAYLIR

Molecule | IC50 [2] [M] | IC50 [1, 3] [nM] | IC50 ([1]; exposed 48 hours) [nM]
Cc1c(-c2c(-c3ccc(F)cc3)sc3ncnc(OC(Cc4ccccc4OCc4ccnc(-c5ccccc5OCCO)n4)C(=O)O)c23)ccc(OCCN2CCN(C)CC2)c1Cl [Example 26, (2R)-2-{[(5Sa)-5-{3-chloro-2-methyl-4-[2-(4methylpiperazin-1-yl)ethoxy]phenyl}-6-(4-fluorophenyl)thieno[2,3-d]pyrimidin-4-yl]oxy}-3-[2-({2-[2-(2-hydroxyethoxy)phenyl]pyrimidin-4-yl}methoxy)phenyl]propanoic acid] | 3.45e-09 | 1.72 | 
Cc1c(-c2c(-c3ccc(F)cc3)sc3ncnc(OC(Cc4ccccc4OCc4ccnc(-c5ccc(O)cc5)n4)C(=O)O)c23)ccc(OCCN2CCN(C)CC2)c1Cl [Example 2, (2R)-2-{[(5Sa)-5-{3-chloro-2-methyl-4-[2-(4-methylpiperazin-1-yl)ethoxy]phenyl}-6-(4-fluorophenyl)thieno[2,3-d]pyrimidin-4-yl]oxy}-3-(2-{[2-(4-hydroxyphenyl)pyrimidin-4-yl]methoxy}phenyl)propanoic acid] | 1.32e-08 | 15.9 | 
Cc1c(-c2c(-c3ccc(F)cc3)sc3ncnc(OC(Cc4ccccc4OCc4ccnc(-c5cccc(OCCN(CCO)CCO)c5)n4)C(=O)O)c23)ccc(OCCN2CCN(C)CC2)c1Cl [Example 49, (2R)-3-(2-{[2-(3-{2-[bis(2-hydroxyethyl)amino]ethoxy}phenyl)pyrimidin-4-yl]methoxy}phenyl)-2-{[(5Sa)-5-{3-chloro-2-methyl-4-[2-(4-methylpiperazin-1-yl)ethoxy]phenyl}-6-(4-fluorophenyl)thieno[2,3-d]pyrimidin-4-yl]oxy}propanoic acid] | 4.65e-09 |  | 
Cc1c(-c2c(-c3ccc(F)cc3)sc3ncnc(OC(Cc4ccccc4OCc4ccnc(-c5cccc(OCCN(C)C)c5)n4)C(=O)O)c23)ccc(OCCN2CCN(C)CC2)c1Cl [Example 52, (2R)-2-{[(5Sa)-5-{3-chloro-2-methyl-4-[2-(4-methylpiperazin-1-yl)ethoxy]phenyl}-6-(4-fluorophenyl)thieno[2,3-d]pyrimidin-4-yl]oxy}-3-{2-[(2-{3-[2-(dimethylamino)ethoxy]phenyl}pyrimidin-4-yl)methoxy]phenyl}propanoic acid] | 3.7e-09 |  | 
(2R)-2-{[(5Sa)-5-{2,3-dimethyl-4-[2-(4-methylpiperazin-1-yl)ethoxy]phenyl}-6-(4-fluorophenyl)thieno[2,3-d]pyrimidin-4-yl]oxy}-3-{2-[(2-{3-[({[2-(piperidin-1-yl)ethyl]carbamoyl}oxy)methyl]phenyl}pyrimidin-4-yl)methoxy]phenyl}propanoic acid [Example 50] | 6.6e-09 |  | 
Cc1c(-c2c(-c3ccc(F)cc3)sc3ncnc(OC(Cc4ccccc4OCc4ccnc(-c5cncc(CO)c5)n4)C(=O)O)c23)ccc(OCCN2CCN(C)CC2)c1Cl [Example 79, (2R)-2-{[(5Sa)-5-{3-chloro-2-methyl-4-[2-(4-methylpiperazin-1-yl)ethoxy]phenyl}-6-(4-fluorophenyl)thieno[2,3-d]pyrimidin-4-yl]oxy}-3-[2-({2-[5-(hydroxymethyl)pyridin-3-yl]pyrimidin-4-yl}methoxy)phenyl]propanoic acid] | 7.6e-09 |  | 

Continued, in another order:

IC50 [2] [M] | Molecule | IC50 [1, 3] [nM] | IC50 ([1]; exposed 48 hours) [nM]
6.35e-09 | Cc1c(-c2c(-c3ccc(F)cc3)sc3ncnc(OC(Cc4ccccc4OCc4ccnc(-c5ccc(OCC6COC(C)(C)O6)cc5)n4)C(=O)O)c23)ccc(OCCN2CCN(C)CC2)c1Cl [Example 55, (2R)-2-{[(5Sa)-5-{3-chloro-2-methyl-4-[2-(4-methylpiperazin-1-yl)ethoxy]phenyl}-6-(4-fluorophenyl)thieno[2,3-d]pyrimidin-4-yl]oxy}-3-{2-[(2-{4-[(2,2-dimethyl-1,3-dioxolan-4-yl)methoxy]phenyl}pyrimidin-4-yl)methoxy]phenyl}propanoic acid] |  | 
4.85e-09 | Cc1c(-c2c(-c3ccc(F)cc3)sc3ncnc(O[C@H](Cc4ccccc4OCc4ccnc(-c5ccccc5OC[C@@H](O)[C@@H](O)[C@H](O)[C@H](O)C(=O)O)n4)C(=O)O)c23)ccc(OCCN2CCN(C)CC2)c1Cl [Example 21] |  | > 150
3.15e-09 | Cc1c(-c2c(-c3ccc(F)cc3)sc3ncnc(OC(Cc4ccccc4OCc4ccnc(-c5ccc(CCO)cc5)n4)C(=O)O)c23)ccc(OCCN2CCN(C)CC2)c1Cl [Example 24, (2R)-2-{[(5Sa)-5-{3-chloro-methyl-4-[2-(4methylpiperazin-1-yl)ethoxy]phenyl}-6-(4-fluorophenyl)thieno[2,3-d]pyrimidin-4-yl]oxy}-3-[2-({2-[4-(2-hydroxyethyl)phenyl]pyrimidin-4-yl}methoxy)phenyl]propanoic acid] | 2.55 | 
4.6e-09 | Cc1c(-c2c(-c3ccc(F)cc3)sc3ncnc(OC(Cc4ccccc4OCc4ccnc(-c5ccc(OCCOCCOCCO)cc5)n4)C(=O)O)c23)ccc(OCCN2CCN(C)CC2)c1Cl [Example 54, (2R)-2-{[(5Sa)-5-{3-chloro-2-methyl-4-[2-(4-methylpiperazin-1-yl)ethoxy]phenyl}-6-(4-fluorophenyl)thieno[2,3-d]pyrimidin-4-yl]oxy}-3-(2-{[2-(4-{2-[2-(2-hydroxyethoxy)ethoxy]ethoxy}phenyl)pyrimidin-4-yl]methoxy}phenyl)propanoic acid] |  | 
4.65e-09 | Cc1c(-c2c(-c3ccc(F)cc3)sc3ncnc(OC(Cc4ccccc4OCc4ccnc(-c5ccc(OCCN(CCO)CCO)cc5)n4)C(=O)O)c23)ccc(OCCN2CCN(C)CC2)c1Cl [Example 53, (2R)-3-(2-{[2-(4-{2-[bis(2-hydroxyethyl)amino]ethoxy}phenyl)pyrimidin-4-yl]methoxy}phenyl)-2-{[(5Sa)-5-{3-chloro-2-methyl-4-[2-(4-methylpiperazin-1-yl)ethoxy]phenyl}-6-(4-fluorophenyl)thieno[2,3-d]pyrimidin-4-yl]oxy}propanoic acid] |  | 
7.7e-09 | Cc1c(-c2c(-c3ccc(F)cc3)sc3ncnc(OC(Cc4ccccc4OCc4ccnc(-c5cnc(CO)nc5)n4)C(=O)O)c23)ccc(OCCN2CCN(C)CC2)c1Cl [Example 82, (2R)-2-{[(5Sa)-5-{3-chloro-2-methyl-4-[2-(4-methylpiperazin-1-yl)ethoxy]phenyl}-6-(4-fluorophenyl)thieno[2,3-d]pyrimidin-4-yl]oxy}-3-(2-{[2′-(hydroxymethyl)-2,5′-bipyrimidin-4-yl]methoxy}phenyl)propanoic acid] |  | 
4.75e-09 | Cc1c(-c2c(-c3ccc(F)cc3)sc3ncnc(OC(Cc4ccccc4OCc4ccnc(-c5ccc(OCCN6CCOCC6)cc5)n4)C(=O)O)c23)ccc(OCCN2CCN(C)CC2)c1Cl [Example 56, (2R)-2-{[(5Sa)-5-{3-chloro-2-methyl-4-[2-(4-methylpiperazin-1-yl)ethoxy]phenyl}-6-(4-fluorophenyl)thieno[2,3-d]pyrimidin-4-yl]oxy}-3-{2-[(2-{4-[2-(morpholin-4-yl)ethoxy]phenyl}pyrimidin-4-yl)methoxy]phenyl}propanoic acid] |  | 
7.6e-08 | CCOC(=O)OC(C)OC(=O)C(Cc1ccccc1OCc1ccnc(-c2cccc(OC(COC)COC)c2)n1)Oc1ncnc2sc(-c3ccc(F)cc3)c(-c3ccc(OCCN4CCN(C)CC4)c(Cl)c3C)c12 [Example 69, 1-[(ethoxycarbonyl)oxy]ethyl (2R)-2-{[(5Sa)-5-{3-chloro-2-methyl-4-[2-(4-methylpiperazin-1-yl)ethoxy]phenyl}-6-(4-fluorophenyl)thieno[2,3-d]pyrimidin-4-yl]oxy}-3-{2-[(2-{3-[(1,3-dimethoxypropan-2-yl)oxy]phenyl}pyrimidin-4-yl)methoxy]phenyl}propanoate] |  | 
4.15e-09 | Cc1c(-c2c(-c3ccc(F)cc3)sc3ncnc(OC(Cc4ccccc4OCc4ccnc(-c5cccc(OCCN6CCOCC6)c5)n4)C(=O)O)c23)ccc(OCCN2CCN(C)CC2)c1Cl [Example 51, (2R)-2-{[(5Sa)-5-{3-chloro-2-methyl-4-[2-(4-methylpiperazin-1-yl)ethoxy]phenyl}-6-(4-fluorophenyl)thieno[2,3-d]pyrimidin-4-yl]oxy}-3-{2-[(2-{3-[2-(morpholin-4-yl)ethoxy]phenyl}pyrimidin-4-yl)methoxy]phenyl}propanoic acid] |  | 
3.85e-09 | COCCOCCOCCOc1cccc(-c2nccc(COc3ccccc3CC(Oc3ncnc4sc(-c5ccc(F)cc5)c(-c5ccc(OCCN6CCN(C)CC6)c(Cl)c5C)c34)C(=O)O)n2)c1 [Example 48, (2R)-2-{[(5Sa)-5-{3-chloro-2-methyl-4-[2-(4-methylpiperazin-1-yl)ethoxy]phenyl}-6-(4-fluorophenyl)thieno[2,3-d]pyrimidin-4-yl]oxy}-3-(2-{[2-(3-{2-[2-(2-methoxyethoxy)ethoxy]ethoxy}phenyl)pyrimidin-4-yl]methoxy}phenyl)propanoic acid] |  | 
